From ChEMBL document CHEMBL4414633, “Investigation of the Factors That Dictate the Preferred Orientation of Lexitropsins in the Minor Groove of DNA” (J Med Chem, 2019)
Active and inactive are the calls of the source. The rule behind the calls is not given here.

Columns and labels:
[1] = Binding affinity to synthetic d(5'-GCGAGTACTCGC-3') DNA sequence assessed as change in heat by ITC assay
[2] = Binding affinity to synthetic d(5'-GCGACTAGTCGC-3') DNA sequence assessed as change in heat by ITC assay
[3] = Binding affinity to synthetic d(CGACTAGTCG)2 DNA sequence by NMR analysis

Question: Which Activity [1] does the source give for `CC(C)c1sc(NC(=O)CCCN(C)C)nc1C(=O)Nc1cc(C(=O)Nc2cc(C(N)=O)n(C)c2)n(C)c1` here?
Answer: Its Activity is “inactive”.

Question: And the Activity [2]?
Answer: Its Activity is “inactive”.

Question: Which Activity [3] does the source give for `CC(C)c1sc(NC(=O)c2cc(NC(=O)c3cc(NC=O)cn3C)cn2C)nc1C(=O)NCCCN(C)C` here?
Answer: The Activity was “Active”.
